{
  "source": "patent US8232406B2",
  "about": "“c-MET protein kinase inhibitors” (Vertex Pharmaceuticals Incorporated, priority 2006, dated 2012)",
  "data": [
    {"target": "c-MET (Homo sapiens, UniProt P08581)", "sequence (P08581 25-1390)": "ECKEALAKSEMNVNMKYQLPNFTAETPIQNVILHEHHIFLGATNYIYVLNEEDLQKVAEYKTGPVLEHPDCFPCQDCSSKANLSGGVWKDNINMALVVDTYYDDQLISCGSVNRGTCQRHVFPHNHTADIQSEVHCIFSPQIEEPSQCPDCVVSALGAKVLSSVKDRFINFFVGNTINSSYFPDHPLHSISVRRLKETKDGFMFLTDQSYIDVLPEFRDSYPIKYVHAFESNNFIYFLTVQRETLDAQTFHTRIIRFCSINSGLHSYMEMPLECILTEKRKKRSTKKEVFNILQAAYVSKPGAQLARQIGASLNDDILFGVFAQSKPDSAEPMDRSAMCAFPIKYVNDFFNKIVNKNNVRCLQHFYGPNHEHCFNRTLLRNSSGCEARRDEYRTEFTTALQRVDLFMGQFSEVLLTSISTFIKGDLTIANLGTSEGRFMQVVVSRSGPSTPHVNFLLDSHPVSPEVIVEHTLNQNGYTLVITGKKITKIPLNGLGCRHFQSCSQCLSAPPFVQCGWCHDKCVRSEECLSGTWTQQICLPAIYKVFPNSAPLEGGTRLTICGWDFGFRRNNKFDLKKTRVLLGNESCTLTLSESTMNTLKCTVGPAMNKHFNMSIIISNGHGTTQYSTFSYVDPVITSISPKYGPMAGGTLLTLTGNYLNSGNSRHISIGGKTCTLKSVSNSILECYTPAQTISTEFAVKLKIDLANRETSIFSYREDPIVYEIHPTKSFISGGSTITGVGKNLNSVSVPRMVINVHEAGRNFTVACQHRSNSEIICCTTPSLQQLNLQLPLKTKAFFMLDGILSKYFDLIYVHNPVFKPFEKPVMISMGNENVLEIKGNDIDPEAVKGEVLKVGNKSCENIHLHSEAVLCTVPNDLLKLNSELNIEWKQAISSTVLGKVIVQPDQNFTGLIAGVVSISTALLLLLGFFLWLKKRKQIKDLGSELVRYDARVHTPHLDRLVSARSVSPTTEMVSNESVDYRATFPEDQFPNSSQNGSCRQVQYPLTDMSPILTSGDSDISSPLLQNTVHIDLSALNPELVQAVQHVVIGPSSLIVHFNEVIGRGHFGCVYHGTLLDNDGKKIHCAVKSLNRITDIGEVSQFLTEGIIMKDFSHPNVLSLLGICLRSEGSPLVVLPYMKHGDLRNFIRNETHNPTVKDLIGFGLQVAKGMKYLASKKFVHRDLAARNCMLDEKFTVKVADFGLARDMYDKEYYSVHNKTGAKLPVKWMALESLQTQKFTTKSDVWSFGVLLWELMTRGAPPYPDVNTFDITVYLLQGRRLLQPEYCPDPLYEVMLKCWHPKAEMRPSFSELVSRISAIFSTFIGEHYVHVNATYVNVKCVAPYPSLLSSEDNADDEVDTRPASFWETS", "experiment": "Ki determination for the inhibition of c-MET (standard radiometric 33P-ATP kinase assay, polyE4Y substrate)", "type": "biochemical", "conditions": "1.0 nM c-Met, 35 μM ATP, 0.5 mg/mL polyE4Y, 20 min; competitive tight-binding fit", "procedure,_shortened": "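Ki obtained by fitting data to competitive tight-binding inhibition kinetics. c-Met at 1.0 nM phosphorylated polyE4Y (0.5 mg/mL) with 35 μM 33P-ATP for 20 min in pH 7.5 HEPES buffer with MgCl2, NaCl, BSA and DTT. Incorporated label measured by scintillation after TCA precipitation on filters.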", "units": {"Ki": "nM"}, "values": [
      {"smiles": "CN(C)Cc1ccc(-c2cnc(N)c(-c3nnnn3-c3cc(F)cc(F)c3)c2)cc1", "note": "[I-A-591]", "Ki": "100 to 1000"},
      {"smiles": "C[C@@H](N)c1ccc(-c2cnc(N)c(-c3nnnn3-c3cccc(F)c3F)c2)cc1", "note": "[I-A-153]", "Ki": "≤ 100"},
      {"smiles": "Nc1ncc(-c2ccc(NC(=O)CN3CCC[C@H]3CO)cc2)cc1-c1nnnn1-c1cccc(F)c1F", "note": "[I-A-160]", "Ki": "100 to 1000"},
      {"smiles": "Nc1ncc(-c2cn(C3CCOCC3)nn2)cc1-c1nnnn1-c1cccc(F)c1F", "note": "[I-A-485]", "Ki": "≤ 100"},
      {"smiles": "Nc1ncc(-c2cnn([C@H]3CCCNC3)c2)cc1-c1nnnn1-c1cccc(F)c1F", "note": "[I-A-405]", "Ki": "≤ 100"},
      {"smiles": "CC(=O)Nc1ccc(-c2cnc(N)c(-c3nnnn3-c3cccc(F)c3F)c2)c(F)c1", "note": "[I-A-126]", "Ki": "≤ 100"},
      {"smiles": "Nc1ncc(-c2cnn(C3CCNCC3)c2)nc1-c1nnnn1-c1cccc(F)c1F", "note": "[I-A-468]", "Ki": "≤ 100"},
      {"smiles": "CC(=O)Nc1ccc(-c2cnc(N)c(-c3nnnn3-c3c(F)cccc3F)c2)cc1", "note": "[I-A-607]", "Ki": "100 to 1000"},
      {"smiles": "Nc1ncc(-c2cnn(CC3CCNC3)c2)cc1-c1nnnn1-c1cccc(F)c1F", "note": "(centres unmarked) [I-A-501]", "Ki": "≤ 100"},
      {"smiles": "Nc1ncc(-c2cc(F)ccc2O)cc1-c1nnnn1-c1cccc(F)c1F", "note": "[I-A-292]", "Ki": "≤ 100"},
      {"smiles": "Nc1ncc(-c2ccc(N3CCNCC3)cc2)cc1-c1nc2cc(F)ccc2n1-c1cccc(Cl)c1F", "note": "[I-D-20]", "Ki": "100 to 1000"},
      {"smiles": "Nc1ncc(-c2ccc(NC(=O)c3ccco3)cc2)cc1-c1nnnn1-c1cccc(F)c1F", "note": "[I-A-162]", "Ki": "100 to 1000"},
      {"smiles": "NC(=O)Nc1ccc(-c2cnc(N)c(-c3nnnn3-c3cccc(F)c3F)c2)cc1", "note": "[I-A-183]", "Ki": "≤ 100"},
      {"smiles": "Nc1ncc(-c2ccc(CN3CC[C@@H](O)C3)cc2)cc1-c1nnnn1-c1cccc(F)c1F", "note": "[I-A-130]", "Ki": "≤ 100"},
      {"smiles": "Nc1ncc(-c2ccn[nH]2)cc1-c1nnnn1-c1cccc(F)c1F", "note": "[I-A-248]", "Ki": "100 to 1000"},
      {"smiles": "Nc1ncc(-c2ccc(CN3CCCC3)cc2)cc1-c1nnnn1-c1cccc(Cl)c1", "note": "[I-A-356]", "Ki": "100 to 1000"},
      {"smiles": "CN1C2CCC1CC(n1cc(-c3cnc(N)c(-c4nnnn4-c4cccc(F)c4F)c3)nn1)C2", "note": "(centres unmarked) [I-A-484]", "Ki": "≤ 100"},
      {"smiles": "Nc1ncc(C2=CCN(C(=O)c3cccnc3)CC2)cc1-c1nnnn1-c1cccc(F)c1F", "note": "[I-A-507]", "Ki": "≤ 100"},
      {"smiles": "Nc1ncc(-c2cccc(O)c2)cc1-c1nnnn1-c1cccc(F)c1F", "note": "[I-A-247]", "Ki": "≤ 100"},
      {"smiles": "CC(=O)N1CCC(n2cc(-c3cnc(N)c(-c4nnc(C)n4-c4cccc(Cl)c4F)c3)cn2)CC1", "note": "[I-A-457]", "Ki": "≤ 100"},
      {"smiles": "CN(C(=O)Nc1ccc(-c2cnc(N)c(-c3nnnn3-c3cccc(F)c3F)c2)cc1)c1ccccc1", "note": "[I-A-279]", "Ki": "100 to 1000"},
      {"smiles": "CN(C)S(=O)(=O)N1CCC(n2cc(-c3cnc(N)c(-c4nnnn4-c4cccc(Cl)c4F)c3)cn2)CC1", "note": "[I-A-442]", "Ki": "≤ 100"},
      {"smiles": "Nc1ncc(-c2cc3c(s2)CCNCC3)cc1-c1nnnn1-c1cccc(F)c1F", "note": "[I-A-430, 3-(1-(2,3-Difluorophenyl)-1H-tetrazol-5-yl)-5-(5,6,7,8-tetrahydro-4H-thieno[3,2-d]azepin-2-yl)pyridin-2-amine]", "Ki": "≤ 100"},
      {"smiles": "CC(=O)Nc1ccc(-c2cnc(N)c(-c3nnnn3-c3cccc(F)c3F)c2)cc1F", "note": "[I-A-127]", "Ki": "≤ 100"},
      {"smiles": "CN(C)Cc1ccc(-c2cnc(N)c(-c3nnnn3-c3cc(Cl)ccc3F)c2)cc1", "note": "[I-A-593]", "Ki": "100 to 1000"},
      {"smiles": "Nc1ncc(-c2ccc3c(c2)CC(=O)N3)cc1-c1nnnn1-c1cccc(F)c1F", "note": "[I-A-188]", "Ki": "≤ 100"},
      {"smiles": "Nc1ncc(-c2cnn(C3CCNCC3)c2)cc1-c1nnnn1-c1cccc(Cl)c1F", "note": "[I-A-626]", "Ki": "≤ 100"},
      {"smiles": "Nc1ncc(-c2cccc(NC(=O)NC3CCCCO3)c2)cc1-c1nnnn1-c1cccc(F)c1F", "note": "(centres unmarked) [I-A-273]", "Ki": "≤ 100"},
      {"smiles": "CC(=O)N1CCC(n2cc(-c3cnc(N)c(-c4nnnn4-c4cccc(F)c4Cl)c3)cn2)CC1", "note": "[I-A-392]", "Ki": "100 to 1000"},
      {"smiles": "Nc1ncc(-c2ccc(CN3CCCC3)cc2)cc1-c1nnnn1-c1c(F)cccc1F", "note": "[I-A-615]", "Ki": "≤ 100"},
      {"smiles": "Nc1ncc(-c2ccc(NC(=O)c3cccs3)cc2)cc1-c1nnnn1-c1cccc(F)c1F", "note": "[I-A-161]", "Ki": "100 to 1000"},
      {"smiles": "Nc1ncc(-c2ccc(CN3CC[C@H](O)C3)cc2)cc1-c1nnnn1-c1cccc(Cl)c1Cl", "note": "[I-A-120]", "Ki": "≤ 100"}
    ]}
  ]
}
